From patent publication US20160168118A1, “N-(5-QUINOLIN-6-YL)PYRIDIN-3-YL) BENZSULFAMIDE DERIVATIVES, PREPARATION METHOD AND THERAPEUTIC USE THEREOF” (SECOND MILITARY MEDICAL UNIVERSITY, PLA, priority 2012, published 2016) come the findings set out here.

A word on the IC50: it is the concentration needed to halve the response being measured. A lower IC50 goes with greater potency. Usually melting point stands for the temperature, or range, at which the solid turns liquid.

Converted amounts (≈) assume the structure as drawn.

Series [1] has as its target PI3Kα (Homo sapiens, UniProt P42336). Description: Kinase-Glo Luminescent Kinase Assay, PI3Kα. Format: biochemical. Background: Kinase-Glo measures the ATP left after a reaction by luminescence.
Series [2] has as its system A549 (human lung cancer cells). Kind of series: MTT assay, A549. Format: cell-based. Conditions: 72 h. The protocol: (§1) 1. Sample preparation: After dissolved with DMSO (Merck), PBS (−) was added to make 1000 μg/ml solution or a uniform suspension, and then diluted with PBS (−) containing the DMSO. Doxorubicin (DOX) was used as the positive control drug.
(§2) 2. Cell Line • 1) A549 (human lung cancer cells); 2) HCT116 (human colon cancer cells); 3) HepG2 (human hepatoma cells); 4) ZR-75-30 (human breast cancer cells); 5) U87MG (human brain star glioblastoma)
(§3) DMEM+5-10% FBS+double resistant
(§4) MTT assay. 100 μl cell suspension was added at a concentration of 4˜5×10^4 cells/ml to each well of a 96-well plate, and was set at 37° C., 5% CO2 in the incubator. After 24 h, the sample solution was added, 10 μl/hole, double wells were set, 37° C., acting for 72 h at 5% CO2. […] of 5 mg/ml was added to each well, the dissolving liquid was added after acted for 4 h, 100 μl/hole, kept in the incubator, and read 570 nm OD with MK-2 automatic microplate reader after dissolution.
Background: Formazan colour is commonly taken as a measure of viable cells.

In series [3] the test system is HepG2 (human hepatoma cells). Description: MTT assay, HepG2. The series is classed as cell-based. Conditions: 72 h. Here is the method:
as §1, §2, §3, §4

For series [4], the system named is U87MG (human brain star glioblastoma). Kind of series: MTT assay, U87MG. The note with it: U-87 MG, 72 h. The series is classed as cell-based. Here is the method:
as §1, §2, §3, §4

For series [5], the system named is HCT116 (human colon cancer cells). Description: MTT assay, HCT116. The series is classed as cell-based. Conditions: HCT-116, 72 h.
For series [6], the system named is ZR-75-30 (human breast cancer cells). Description: MTT assay, ZR-75-30. Format: cell-based. The note with it: 72 h. Here is the method:
as §1, §2, §3, §4

Chain of PI3Kα (P42336 whole entry, species assumed): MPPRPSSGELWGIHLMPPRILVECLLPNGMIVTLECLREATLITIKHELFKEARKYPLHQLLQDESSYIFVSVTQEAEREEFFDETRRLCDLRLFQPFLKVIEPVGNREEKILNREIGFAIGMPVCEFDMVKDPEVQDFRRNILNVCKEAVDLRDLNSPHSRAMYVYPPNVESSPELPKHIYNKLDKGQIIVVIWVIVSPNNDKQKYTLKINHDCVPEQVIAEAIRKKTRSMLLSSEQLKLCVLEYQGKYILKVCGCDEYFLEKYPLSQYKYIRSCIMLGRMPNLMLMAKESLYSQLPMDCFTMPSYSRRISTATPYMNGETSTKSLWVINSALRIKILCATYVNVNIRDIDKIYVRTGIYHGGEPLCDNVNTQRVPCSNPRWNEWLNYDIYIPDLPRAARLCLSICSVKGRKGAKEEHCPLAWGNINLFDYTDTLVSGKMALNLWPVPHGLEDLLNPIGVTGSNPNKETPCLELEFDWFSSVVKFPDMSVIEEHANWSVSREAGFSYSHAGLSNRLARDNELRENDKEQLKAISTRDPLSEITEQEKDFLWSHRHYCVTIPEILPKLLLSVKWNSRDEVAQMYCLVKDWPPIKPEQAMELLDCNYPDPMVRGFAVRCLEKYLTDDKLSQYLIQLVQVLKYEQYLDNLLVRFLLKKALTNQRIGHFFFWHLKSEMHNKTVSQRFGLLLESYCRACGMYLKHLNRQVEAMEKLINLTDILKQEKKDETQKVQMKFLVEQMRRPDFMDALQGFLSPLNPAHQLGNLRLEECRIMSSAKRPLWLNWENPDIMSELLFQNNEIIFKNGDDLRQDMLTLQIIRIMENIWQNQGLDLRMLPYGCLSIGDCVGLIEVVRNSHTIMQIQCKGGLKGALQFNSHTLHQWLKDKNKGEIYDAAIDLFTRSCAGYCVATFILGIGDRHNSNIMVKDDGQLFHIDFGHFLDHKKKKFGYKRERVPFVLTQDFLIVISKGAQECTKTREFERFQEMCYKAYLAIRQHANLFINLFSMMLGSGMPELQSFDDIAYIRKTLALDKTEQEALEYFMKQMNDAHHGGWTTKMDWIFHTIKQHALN
Chain of PI3Kα (P27986 whole entry partner, species assumed): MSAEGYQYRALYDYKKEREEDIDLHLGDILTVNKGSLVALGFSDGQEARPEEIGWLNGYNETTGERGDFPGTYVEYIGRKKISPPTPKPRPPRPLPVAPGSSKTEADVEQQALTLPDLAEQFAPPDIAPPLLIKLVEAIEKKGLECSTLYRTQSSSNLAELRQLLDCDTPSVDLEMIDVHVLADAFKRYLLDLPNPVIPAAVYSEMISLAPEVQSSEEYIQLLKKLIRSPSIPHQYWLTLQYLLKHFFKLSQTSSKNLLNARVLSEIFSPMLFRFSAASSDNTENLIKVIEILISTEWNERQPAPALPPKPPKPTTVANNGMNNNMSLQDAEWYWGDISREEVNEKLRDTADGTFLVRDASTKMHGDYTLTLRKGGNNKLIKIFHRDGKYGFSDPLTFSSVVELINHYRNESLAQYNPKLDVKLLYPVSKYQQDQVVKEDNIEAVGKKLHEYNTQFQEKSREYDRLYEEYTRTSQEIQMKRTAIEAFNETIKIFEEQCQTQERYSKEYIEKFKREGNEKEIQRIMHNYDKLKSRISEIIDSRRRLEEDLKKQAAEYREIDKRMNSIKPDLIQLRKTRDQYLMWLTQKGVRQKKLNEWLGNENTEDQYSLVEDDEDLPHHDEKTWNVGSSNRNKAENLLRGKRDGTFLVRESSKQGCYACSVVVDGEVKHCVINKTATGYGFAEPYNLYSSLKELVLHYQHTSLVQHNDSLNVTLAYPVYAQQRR

`COc1ncc(-c2ccc3nccc(N4CCCC4)c3c2)cc1NS(=O)(=O)c1ccc(F)cc1F` [Compound 2] had a melting point of 223 to 225 °C. Besides, the IC50 in series [1] is over 100 nM. In series [2], this molecule showed an IC50 of 1.69 µg/mL (≈ 3.41 µM). Further, the IC50 in series [3] was 9.83 µg/mL (≈ 19.8 µM). This molecule returned an IC50 in series [4] of 3.32 µg/mL (≈ 6.69 µM). The IC50 in series [5] was determined as 1.65 µg/mL (≈ 3.32 µM). In series [6], this molecule gave an IC50 of 6.73 µg/mL (≈ 13.6 µM).

The molecule `COc1ncc(-c2ccc3nccc(N4CCOCC4)c3c2)cc1NS(=O)(=O)c1ccc(F)cc1F` [Compound 3, N-(2-methoxy-5-(4-morpholinequinolin-6-yl)pyridin-3-yl)-2,4-difluorobenzenesulfonamide] gave a melting point of 219 to 221 °C. In addition, inhibition in series [1] was half-maximal at 1.4 nM (IC50). In series [2], this molecule returned an IC50 of 1.23 µg/mL (≈ 2.4 µM). Besides, the midpoint of inhibition in series [3], the IC50, lay at 11.5 µg/mL (≈ 22.4 µM). In series [4], this molecule returned an IC50 of 64.7 µg/mL (≈ 126 µM). In series [5], this molecule yielded an IC50 of 2.27 µg/mL (≈ 4.43 µM). The molecule also had an IC50 in series [6] of 2.16 µg/mL (≈ 4.21 µM).

Consider `COc1ncc(-c2ccc3nccc(Cl)c3c2)cc1NS(=O)(=O)c1ccc(F)cc1F` [Compound 4, N-(5-(4-chlorinequinolin-6-yl)-2-methoxypyridine-3-yl)-2,4-difluorobenzenesulfonamide], for which the melting point was in the range of 171 to 173 °C. The same molecule had an IC50 in series [1] of 2.3 nM. Also, 1.36 µg/mL (≈ 2.94 µM) corresponded to half-maximal inhibition in series [2] (IC50). Moreover, the midpoint of inhibition in series [3], the IC50, lay at 2.26 µg/mL (≈ 4.89 µM). Besides, the half-maximal inhibitory concentration (IC50) in series [4] is over 100 µg/mL. The midpoint of inhibition in series [5], the IC50, lay at 3.04 µg/mL (≈ 6.59 µM). Further, it took 2.59 µg/mL (≈ 5.61 µM) to reach half-maximal inhibition in series [6] (IC50).

Regarding `CCN(CC)Cc1ccc(-c2ccnc3ccc(-c4cnc(OC)c(NS(=O)(=O)c5ccc(F)cc5F)c4)cc23)cc1` [Compound 5, N-(5-(4-(4-((diethylamine)methyl)phenyl)quinolin-6-yl)-2-methoxypyridine-3-yl)-2,4-difluorobenzenesulfonamide], the melting point fell in the range of 106 to 108 °C. In series [1], this molecule gave an IC50 of 1.1 nM. In series [2], this molecule registered an IC50 of 0.013 µg/mL (≈ 0.0221 µM). In addition, in series [3], it took 0.613 µg/mL (≈ 1.04 µM) to reach half-maximal inhibition (IC50). This molecule also displayed an IC50 in series [4] of 2.88 µg/mL (≈ 4.89 µM). Moreover, the IC50 in series [5] was 0.00293 µg/mL (≈ 0.00498 µM). In series [6], the IC50 was found to be 0.783 µg/mL (≈ 1.33 µM).

`COc1ncc(-c2ccc3nccc(-c4ccc(C)cc4)c3c2)cc1NS(=O)(=O)c1ccc(F)cc1F` [Compound 6, N-(2-methoxy-5-(4-(p-methylphenyl)quinolin-6-yl)pyridin-3-yl)-2,4-difluorobenzenesulfonamide] returned a melting point of 175 to 176 °C. In series [1], this molecule gave an IC50 of 4.5 nM. The same molecule gave an IC50 in series [2] of 0.642 µg/mL (≈ 1.24 µM). The IC50 in series [3] came to 5.63 µg/mL (≈ 10.9 µM). In series [4], this molecule displayed an IC50 of 34.7 µg/mL (≈ 67 µM). This molecule showed an IC50 in series [5] of 1.31 µg/mL (≈ 2.54 µM). Further, half-maximal inhibition in series [6] (IC50) required 6.69 µg/mL (≈ 12.9 µM).

Molecule `COC(=O)c1ccc(-c2ccnc3ccc(-c4cnc(OC)c(NS(=O)(=O)c5ccc(F)cc5F)c4)cc23)cc1` [Compound 7, 4-(6-(5-(2,4-difluorobenzenesulfonamideyl)-6-methoxypyridine-3-yl)quinolin-4-yl)methyl benzoate] registered a melting point of 69 to 72 °C. The molecule also registered an IC50 in series [1] of 1.5 nM. The molecule further showed an IC50 in series [2] of 0.014 µg/mL (≈ 0.0249 µM). Also, the IC50 in series [3] was 1.16 µg/mL (≈ 2.07 µM). In series [4], this molecule registered an IC50 of 3.9 µg/mL (≈ 6.95 µM). The same molecule showed an IC50 in series [5] of 0.277 µg/mL (≈ 0.493 µM). Besides, the IC50 in series [6] came out at 1.74 µg/mL (≈ 3.1 µM).

The molecule `O=S(=O)(Nc1cc(-c2ccc3nccc(-n4cncn4)c3c2)cnc1Cl)c1ccc(F)cc1` [Compound 27, N-(5-(4-(1H-1,2,4-triazole-1-yl)quinolin-6-yl)-2-chlorinepyridin-3-yl)-4-fluorobenzenesulfonamide] showed a melting point of 258 to 261 °C. In addition, in series [1], half-maximal inhibition (IC50) required 0.81 nM. In series [2], this molecule came in with an IC50 of 1.16 µg/mL (≈ 2.41 µM). In series [3], this molecule showed an IC50 of 9.43 µg/mL (≈ 19.6 µM). Moreover, the IC50 in series [5] was 1.22 µg/mL (≈ 2.54 µM).

Turning to `COc1ncc(-c2ccc3nccc(-c4ccc(CN(C)C)cc4)c3c2)cc1NS(=O)(=O)c1ccc(F)cc1` [Compound 31, N-(5-(4-(4-((dimethylamine)methyl)phenyl)quinolin-6-yl)-2-methoxypyridine-3-yl)-4-fluorobenzenesulfonamide], the melting point was in the range of 150 to 152 °C. Moreover, it took 2.1 nM to reach half-maximal inhibition in series [1] (IC50). Moreover, the IC50 in series [2] was found to be 0.2 µg/mL (≈ 0.369 µM). Further, in series [3], the IC50 amounted to 1.64 µg/mL (≈ 3.02 µM). The molecule further returned an IC50 in series [5] of 1.02 µg/mL (≈ 1.88 µM).

`CN(C)Cc1ccc(-c2ccnc3ccc(-c4cnc(Cl)c(NS(=O)(=O)c5ccc(F)cc5F)c4)cc23)cc1` [Compound 32, N-(5-(4-(4-((dimethylamine)methyl)phenyl)quinolin-6-yl)-2-chlorinepyridin-3-yl)-2,4-difluorobenzenesulfonamide] had a melting point of 160 to 164 °C. The same molecule displayed an IC50 in series [1] of 0.69 nM. This molecule also returned an IC50 in series [2] of 2.12 µg/mL (≈ 3.75 µM). In series [3], this molecule came in with an IC50 of 2.18 µg/mL (≈ 3.86 µM). In addition, the IC50 in series [5] is 1.03 µg/mL (≈ 1.82 µM).

Take `O=S(=O)(Nc1cc(-c2ccc3nccc(-c4ccc(Cn5cncn5)cc4)c3c2)cnc1Cl)c1ccc(F)cc1` [Compound 33, N-(5-(4-(4-((1H-1,2,4-triazole-1-yl)methyl)phenyl)quinolin-6-yl)-2-chlorinepyridin-3-yl)-4-fluorobenzenesulfonamide]: the melting point was in the range of 235 to 236 °C. The same molecule displayed an IC50 in series [1] of 0.73 nM. This molecule also returned an IC50 in series [2] of 1.52 µg/mL (≈ 2.66 µM). The IC50 in series [3] was 5.47 µg/mL (≈ 9.58 µM). The same molecule showed an IC50 in series [5] of 1.43 µg/mL (≈ 2.5 µM).

The molecule `COc1ncc(-c2ccc3nccc(-c4ccc(Cn5cncn5)cc4)c3c2)cc1NS(=O)(=O)c1ccc(F)cc1` [Compound 34, N-(5-(4-(4-((1H-1,2,4-triazole-1-yl)methyl)phenyl)quinolin-6-yl)-2-methoxypyridine-3-yl)-4-fluorobenzenesulfonamide] gave a melting point of 150 to 152 °C. 0.91 nM corresponded to half-maximal inhibition in series [1] (IC50). For the same molecule, half-maximal inhibition in series [2] (IC50) required 0.28 µg/mL (≈ 0.494 µM). The IC50 in series [3] worked out at 7.18 µg/mL (≈ 12.7 µM). The molecule further yielded an IC50 in series [5] of 1.15 µg/mL (≈ 2.03 µM).

`O=S(=O)(Nc1cc(-c2ccc3nccc(-c4ccc(Cn5cncn5)cc4)c3c2)cnc1Cl)c1ccc(F)cc1F` [Compound 35, N-(5-(4-(4-((1H-1,2,4-triazole-1-yl)methyl)phenyl)quinolin-6-yl)-2-chlorinepyridin-3-yl)-2,4-difluorobenzenesulfonamide] had a melting point of 145 to 148 °C. Also, 0.82 nM corresponded to half-maximal inhibition in series [1] (IC50). The IC50 in series [2] amounted to 5.66 µg/mL (≈ 9.61 µM). In series [3], the IC50 is 1.2 µg/mL (≈ 2.04 µM). Moreover, in series [5], the IC50 was found to be 1.64 µg/mL (≈ 2.78 µM).

The molecule `CN(CCO)Cc1ccc(-c2ccnc3ccc(-c4cnc(Cl)c(NS(=O)(=O)c5ccc(F)cc5)c4)cc23)cc1` [Compound 36, N-(5-(4-(4-(((2-hydroxyethyl)(methyl)amino)methyl)phenyl)quinolin-6-yl)-2-chlorinepyridin-3-yl)-4-fluorobenzenesulfonamide] yielded a melting point of 214 to 217 °C. Further, the IC50 in series [1] was 1 nM. The IC50 in series [2] amounted to 0.13 µg/mL (≈ 0.225 µM). The molecule also gave an IC50 in series [3] of 1.1 µg/mL (≈ 1.91 µM). The same molecule returned an IC50 in series [5] of 1.06 µg/mL (≈ 1.84 µM).

As for `CN(CCO)Cc1ccc(-c2ccnc3ccc(-c4cnc(Cl)c(NS(=O)(=O)c5ccc(F)cc5F)c4)cc23)cc1` [Compound 37, N-(5-(4-(4-(((2-hydroxyethyl)(methyl)amino)methyl)phenyl)quinolin-6-yl)-2-chlorinepyridin-3-yl)-2,4-difluorobenzenesulfonamide], the melting point was 132 to 135 °C. This molecule registered an IC50 in series [1] of 0.75 nM. Further, half-maximal inhibition in series [2] (IC50) required 1.08 µg/mL (≈ 1.81 µM). Also, in series [3], half-maximal inhibition (IC50) required 1.71 µg/mL (≈ 2.87 µM). The IC50 in series [5] came out at 1.89 µg/mL (≈ 3.18 µM).
